We go through two compounds from patent publication US20120305840A1, “CARBON DIOXIDE ABSORBING SOLUTION” (Kabushiki Kaisha Toshiba, priority 2009, published 2012).

Molecules are shown by their SMILES.

Data set [1] can be described thus: Volatility: decreased amount of absorbent by 1H-NMR after heating. It counts as physicochemical. Conditions: 60 minutes at 140° C. Here is the method:
According to the decreased amount, the volatility was evaluated. The less the decreased amount was, the less volatile the absorbent was regarded as. In general, if containing a less volatile absorbent, the absorbing solution can be repeatedly regenerated without decrease of the absorbent content.

The nature of data set [2]: Precipitation in the absorbing solution after absorbing carbon dioxide. It counts as physicochemical.

`O=C([O-])C1CNC1.[K+]` [absorbent 1, potassium 1-aza-azetidine-3-carboxylate]: the “volatility of the absorbent (in words)” value in data set [1] was “hardly volatilize”. Also, the “precipitation in the absorbing solutions on absorbing carbon dioxide to form products” value in data set [2] is “did not precipitate”.
On to `O=C([O-])C1CCCN1.[K+]` (stereo not shown) [absorbent 2, pyrrolidine-2-carboxylic acid salt], for which, in data set [1], the “volatility of the absorbent (in words)” value is reported as “hardly volatilize”. Moreover, in data set [2], the “precipitation in the absorbing solutions on absorbing carbon dioxide to form products” value is on record as “did not precipitate”.
